In patent US10336697B2, “Spiro[cyclobutane-1,3′-indolin]-2′-one derivatives as bromodomain inhibitors” (Orion Corporation, priority 2015, dated 2019):

These compounds were tested against Bet BRD4 full length bromo-domain protein (Homo sapiens, UniProt O60885) (assay: Bet bromodomain TR-FRET assay (displacement of acetyl histone peptide)). Conditions: Bet BRD4 full length bromodomain protein, 300 nM acetyl histone peptide substrate, read-out: IC50.
Assay type: binding
`CC(Oc1cc(NS(=O)(=O)c2ccc(Cl)cc2F)cc2c1NC(=O)C21CCC1)c1ccccn1` (single isomer, unassigned) [Compound 155, 4-Chloro-2-fluoro-N-(2′-oxo-7′-(1-(pyridin-2-yl)ethoxy)spiro[cyclobutane-1,3′-indolin]-5′-yl)benzenesulfonamide] gave an IC50 of 600 to 1000 nM. Work on `O=C1Nc2c(OC3CCNCC3F)cc(NS(=O)(=O)c3ccc(Cl)cc3F)cc2C12CCC2` (stereo not shown) [compound 198, 4-Chloro-2-fluoro-N-(7′-((3-fluoropiperidin-4-yl)oxy)-2′-oxospiro[cyclobutane-1,3′-indolin]-5′-yl)benzenesulfonamide] yielded an IC50 of under 600 nM. Compound `COc1cc(F)ccc1S(=O)(=O)Nc1cc(Cc2cccc(F)c2)c2c(c1)C1(CCC1)C(=O)N2` [Compound 96, 4-Fluoro-N-(7′-(3-fluorobenzyl)-2′-oxospiro[cyclobutane-1,3′-indolin]-5′-yl)-2-methoxybenzenesulfonamide] has an IC50 of under 600 nM. `COc1ccccc1S(=O)(=O)Nc1cc(OCCN2CCOCC2)c2c(c1)C1(CCC1)C(=O)N2` [Compound 168, 2-Methoxy-N-(7′-(2-morpholinoethoxy)-2′-oxospiro[cyclobutane-1,3′-indolin]-5′-yl)benzenesulfonamide] showed an IC50 of under 600 nM. Work on `COc1ccccc1S(=O)(=O)Nc1cc(C(=O)NC2CCNCC2)c2c(c1)C1(CCC1)C(=O)N2` [Compound 64, 5′-((2-methoxyphenyl)sulfonamido)-2′-oxo-N-(piperidin-4-yl)spiro[cyclobutane-1,3′-indoline]-7′-carboxamide] yielded an IC50 of under 600 nM. For `CN1CCC(NC(=O)c2cc(NS(=O)(=O)C3CCCCC3)cc3c2NC(=O)C32CCC2)CC1` [Compound 83, 5′-(Cyclohexanesulfonamido)-N-(1-methylpiperidin-4-yl)-2′-oxospiro[cyclobutane-1,3′-indoline]-7′-carboxamide], the IC50 was 600 to 1000 nM. `CN1CCC(Oc2cc(NC(=O)/C=C/c3ccccc3)cc3c2NC(=O)C32CCC2)CC1` [compound 219, N-(7′-((1-methylpiperidin-4-yl)oxy)-2′-oxospiro[cyclobutane-1,3′-indolin]-5′-yl)cinnamamide] was tested, and the IC50 was under 600 nM. Compound `O=C(NC1CCCNC1)c1cc(NS(=O)(=O)c2ccc(F)cc2F)cc2c1NC(=O)C21CCC1` (single isomer, unassigned) [Compound 68, 5′-(2,4-Difluorophenylsulfonamido)-2′-oxo-N-(piperidin-3-yl)spiro[cyclobutane-1,3′-indoline]-7′-carboxamide] has an IC50 of under 600 nM. With `O=C(c1cc(NS(=O)(=O)c2ccc(F)cc2F)cc2c1NC(=O)C21CCC1)N1CCOCC1` [Compound 48, 2,4-Difluoro-N-(7′-(morpholine-4-carbonyl)-2′-oxospiro [cyclobutane-1,3′-indolin]-5′-yl)benzenesulfonamide] the IC50 was over 1000 nM. With `COC(=O)c1cc(NS(=O)(=O)c2ccc(F)cc2F)cc2c1NC(=O)C21CCC1` [Compound 41, Methyl 5′-((2,4-difluorophenyl)sulfonamido)-2′-oxospiro[cyclobutane-1,3′-indoline]-7′-carboxylate] the IC50 was under 600 nM.
